The values that follow come from patent US20150125915A1, “Method for Producing Lactic Acid” (Kao Corporation, priority 2012, published 2015).

The subject of data set [1] is Rhizopus oryzae JCM14625 strain (=NBRC 5384). Briefly: LDH activity evaluation-1: mycelia prepared from spores in surfactant-supplemented PDB medium, LDH activity of fungus body extract. The format is cell-based. The note with it: for LDH activity (relative value): 0.5% (w/v) surfactant in PDB medium at spore germination, LDH activity in the absence of the surfactant = 100; for LDH activity compared with control fungus bodies (in words): 0.5% (w/v) surfactant at spore germination, versus medium non-supplemented with the surfactant. The method, then:
A loopful of a cryopreserved spore suspension sample (−80° C.) of a Rhizopus oryzae JCM14625 strain (=NBRC 5384) obtained from a culture collection Riken BioResource Center (BRC) was inoculated to a PDA medium (Difco Potato Dextrose Agar, manufactured by Becton, Dickinson and Company) and then statically cultured at 30° C. for from 7 to 10 days. After visual confirmation of hyphal growth and blackening at the ends of hyphae associated with sporulation, from 30 to 40 mL of saline was added thereto. Spores, together with hyphae, were collected into a 50-mL centrifugal tube with a lid (manufactured by Greiner bio-one) using a platinum loop and then vigorously mixed in the tube. The spore suspension thus mixed was filtered through 3GP100 cylindrical funnel-shaped glass filter (manufactured by Shibata Scientific Technology Ltd.). The resulting filtrate was used as a spore solution. The number of spores in the spore solution was measured using a hemocytometer (D=1/50 mm· 1/400 mm^2) after appropriate dilution with saline.
80 mL of a PDB medium non-supplemented or supplemented with 0.5% (w/v) (final concentration) of each surfactant described below was applied to a 200-mL baffled Erlenmeyer flask (manufactured by Asahi Glass Co., Ltd.). The Rhizopus oryzae spore suspension prepared in Production Example 1 was inoculated thereto at a dose of 1×10^3 spores/mL of the medium and then cultured at 27° C. for 3 days with stirring at 170 rpm. Since mycelia would remain on the filter, the cultures were filtered through a stainless sieve of 250 μm in mesh size (manufactured by AS ONE Corp.) sterilized in advance to recover fungus bodies onto the filter.
From3.0 to 4.0 g (wet weight) of the recovered fungus bodies was inoculated to 100 mL of an inorganic culture medium (composition: 10% glucose, 0.1% ammonium sulfate, 0.06% potassium dihydrogen phosphate, 0.025% magnesium sulfate heptahydrate, 0.009% zinc sulfate heptahydrate, and 5.0% calcium carbonate; all the concentrations mean % (w/v)) applied to a 500-mL Erlenmeyer flask, and then cultured at 27° C. for approximately 40 hours with stirring at 220 rpm. Subsequently, the cultures thus obtained by culture in the inorganic culture medium were filtered using a stainless screen filter holder (manufactured by EMD Millipore) sterilized in advance to recover fungus bodies onto the filter. On this filter holder, the fungus bodies were further washed with 100 mL of saline. The saline used in washing was removed by suction filtration. The obtained fungus bodies were used in the following LDH activity evaluation and evaluation of the ability to fermentatively produce lactic acid.
6.0 g of the wet fungus bodies of the genus Rhizopus obtained in Production Example 3 was inoculated to 40 mL of an inorganic culture medium for lactic acid production evaluation (composition: 8.0% glucose, 0.1% ammonium sulfate, 0.06% potassium dihydrogen phosphate, 0.025% magnesium sulfate heptahydrate, 0.009% zinc sulfate heptahydrate, and 5.0% calcium carbonate; all the concentrations mean % (w/v)) applied to a 200-mL Erlenmeyer flask, and then cultured at 35° C. with stirring at 170 rpm. After 4.5-hour culture of the fungus bodies of the genus Rhizopus with stirring, the fungus bodies were filtered using a stainless screen filter holder (manufactured by EMD Millipore) sterilized in advance to recover fungus bodies onto the filter. On this filter holder, the fungus bodies were further washed with 100 mL of saline. The saline used in washing was removed by suction filtration. 0.3 g of the obtained fungus bodies was recovered into a 3-mL disruption tube (manufactured by Yasui Kikai Corp.). Metal cone for 3 mL (manufactured by Yasui Kikai Corp.) was added to the tube, which was then capped and then frozen in liquid nitrogen. The frozen 3-mL disruption tube was applied to Multi-Beads Shocker (manufactured by Yasui Kikai Corp.). The fungus bodies were disrupted at 1700 rpm for 10 seconds.

Data set [2] is described as follows: Evaluation of foaming property by the inversion stirring method. It is filed as physicochemical. To be noted: for Volume of foam relative to the volume of foam in the absence of the surfactant (in words): 0.5% (w/v) in PDB medium; for Volume of foam (relative value): 0.5% (w/v) surfactant in PDB medium, 30 seconds after stirring, foam in the absence of the surfactant = 100. The method, then:
Each surfactant used in Test Example 2 was evaluated for its foaming properties by the inversion stirring method. 100 mL of a PDB medium non-supplemented or supplemented with 0.5% (w/v) (final concentration) of a surfactant was added to a graduated cylindrical container of 50 mm in diameter and then inversion-stirred for 300 seconds using a flat propeller while the propeller was inverted every 6 seconds at 1000 rpm. 30 seconds after the completion of stirring, the volume of foam in the medium was measured.

The test system of data set [3] is Rhizopus oryzae JCM14625 strain (=NBRC 5384). Briefly: Evaluation of ability to produce lactic acid-1 (production rate of lactic acid). The format is cell-based. To be noted: 0.5% (w/v) surfactant in PDB medium at spore germination; rate in the absence of the surfactant = 100. The procedure:
Specifically, the mycelia of a fungus of the genus Rhizopus were prepared by the method of Production Example 2 using the surfactant and then grown by the method of Production Example 3. 6.0 g of the obtained wet fungus bodies of the genus Rhizopus was inoculated to 40 mL of an inorganic culture medium for lactic acid production evaluation (composition: 8.0% glucose, 0.1% ammonium sulfate, 0.06% potassium dihydrogen phosphate, 0.025% magnesium sulfate heptahydrate, 0.009% zinc sulfate heptahydrate, and 5.0% calcium carbonate; all the concentrations mean % (w/v)) applied to a 200-mL Erlenmeyer flask, and then cultured at 35° C. with stirring at 170 rpm. The supernatant of the culture medium was recovered every 2 hours from 30 minutes after the fungus body inoculation. Glucose and lactic acid were quantified by the procedures described later in Reference Example 1. A relative value of the production rate of lactic acid was determined on the basis of the calculation method described in Reference Example 2.
Glucose and lactic acid were quantified using an HPLC apparatus LaChrom Elite (manufactured by Hitachi High-Technologies Corp.). The analytical column used was a carbohydrate/organic acid analysis column HPX-87H (7.8 mm I.D.×30 cm, manufactured by Bio-Rad Laboratories, Inc.) connected with a guard column Cation H (4.6 mm I.D.×3.0 cm, manufactured by Bio-Rad Laboratories, Inc.). Elution was performed under conditions involving 10 mM sulfuric acid as an eluent, a flow rate of 0.85 mL/min, and a column temperature of 50° C. Glucose and lactic acid were detected using a differential refractive index detector (RI detector) and a UV detector (detection wavelength: 210 nm), respectively. The standard samples used were glucose (distributor code: 049-31165, manufactured by Wako Pure Chemical Industries Ltd.), and lithium L-lactate (product number: L2250, manufactured by Sigma-Aldrich Inc.). Quantification was performed on the basis of concentration calibration curves prepared using these standard samples.
The supernatant sample of each culture medium to be subjected to HPLC analysis was appropriately diluted in advance with 37 mM sulfuric acid and then applied to DISMIC-13cp (0.20 μm cellulose acetate membrane, manufactured by […] Group) or MULTI SCREEN MNHV45 (0.45 μm Durapore membrane, manufactured by EMD Millipore) to remove insoluble matter.
The concentration of lactic acid (unit: g of lactic acid/L of medium) in the supernatant sample of each culture medium was measured according to Reference Example 1 and divided by a time (unit: hr) required for change in lactic acid concentration to calculate the production rate of lactic acid per unit time (unit: g of lactic acid/L/hr). In addition, a relative value to the production rate of lactic acid under control conditions in each Production Example was determined.

Take “Polyoxyethylene (4) sorbitan monolaurate”: the “LDH activity (relative value)” value in data set [1] was determined as 140 relative value. Moreover, in data set [2], the “Volume of foam relative to the volume of foam in the absence of the surfactant (in words)” value is “twice or less” and the “Volume of foam (relative value)” value is 150 relative value. Moreover, the “Production rate of lactic acid (relative value)” value in data set [3] is on record as 142 relative value.
Consider “Polyoxyethylene (20) sorbitan monolaurate”, for which, in data set [1], the “LDH activity (relative value)” value is given as 148 relative value. Besides, the “Volume of foam (relative value)” value in data set [2] came out at 1350 relative value. Further, the “Production rate of lactic acid (relative value)” value in data set [3] amounted to 137 relative value.
Regarding Sodium deoxycholate, in data set [1], the “LDH activity compared with control fungus bodies (in words)” value was “higher LDH activity” and the “LDH activity (relative value)” value came to 109 relative value.
As to Polyoxyethylene (5) lauryl ether, the “LDH activity (relative value)” value in data set [1] is 112 relative value.
On to Sorbitan monooleate, for which, in data set [1], the “LDH activity compared with control fungus bodies (in words)” value was “higher LDH activity” and the “LDH activity (relative value)” value was determined as 135 relative value. In data set [2], the “Volume of foam relative to the volume of foam in the absence of the surfactant (in words)” value is “twice or less” and the “Volume of foam (relative value)” value is on record as 100 relative value. Besides, in data set [3], the “Production rate of lactic acid (relative value)” value is listed as 113 relative value.
Consider Polyoxyethylene (6) lauryl ether, for which, in data set [1], the “LDH activity compared with control fungus bodies (in words)” value is listed as “slightly lower LDH activity” and the “LDH activity (relative value)” value is 93 relative value.
For Polyoxyethylene (4) lauryl ether, the “LDH activity (relative value)” value in data set [1] is reported as 214 relative value. For the same substance, the “Volume of foam (relative value)” value in data set [2] was 350 relative value. In addition, the “Production rate of lactic acid (relative value)” value in data set [3] is listed as 171 relative value.
Regarding Polyoxyethylene (10) octyl phenyl ether, in data set [1], the “LDH activity compared with control fungus bodies (in words)” value is recorded as “higher LDH activity” and the “LDH activity (relative value)” value was 178 relative value. Further, the “Volume of foam (relative value)” value in data set [2] came out at 2000 relative value. Also, in data set [3], the “Production rate of lactic acid (relative value)” value was 254 relative value.
In the case of Polyoxyethylene (3) lauryl ether, the “LDH activity (relative value)” value in data set [1] turned out to be 170 relative value. Further, the “Volume of foam (relative value)” value in data set [2] is on record as 250 relative value. In addition, in data set [3], the “Production rate of lactic acid (relative value)” value worked out at 203 relative value.
